Consider 26 compounds from patent publication US20110021530A1, “PYRIDAZINE DERIVATIVES AND THEIR USE AS THERAPEUTIC AGENTS IN THE TREATMENT OF SKIN DISORDERS” (XENON PHARMACEUTICALS INC., priority 2008, published 2011).

In one series the test system is HEPG2. Description: HEPG2 IC50. It is filed as cell-based. Particulars: Homo sapiens.
The target of a further series is T1, SCD (Mus musculus, UniProt P13516).
T1 sequence (P13516 1-355): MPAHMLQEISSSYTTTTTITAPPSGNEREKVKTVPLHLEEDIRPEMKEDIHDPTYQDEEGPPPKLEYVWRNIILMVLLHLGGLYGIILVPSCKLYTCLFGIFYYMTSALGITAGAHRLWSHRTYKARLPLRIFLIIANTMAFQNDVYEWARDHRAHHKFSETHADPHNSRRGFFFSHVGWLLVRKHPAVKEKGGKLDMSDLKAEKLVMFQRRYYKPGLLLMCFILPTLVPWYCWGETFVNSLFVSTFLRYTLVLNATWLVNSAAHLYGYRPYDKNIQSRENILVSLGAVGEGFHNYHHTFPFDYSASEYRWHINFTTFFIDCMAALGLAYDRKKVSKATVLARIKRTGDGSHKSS
In words: Mouse SCD IC50 determination for compounds active in the HTS assay. The format is biochemical.

For series [1], the target named is T2, stearoyl-CoA desaturase (SCD) (Mus musculus, UniProt P13516).
T2 construct: Reactions are started by adding 2 mg of microsomal protein; from tissue; host or cells: liver microsomes of male ICR mice on a high-carbohydrate, low fat diet
T2 sequence (P13516 1-355): T1 sequence (P13516 1-355)
Description: HTS microsomal assay of stearoyl-CoA desaturase inhibition using mouse liver microsomes. It is filed as biochemical. The conditions noted are these: % SCD enzyme activity remaining at 10 μM test compound. On the procedure: The absence of mitochondrial contamination is enzymatically assessed.
The compounds are analyzed with an HTS microsomal assay.
(In general: Liver microsomes are vesicles of endoplasmic reticulum, rich in cytochrome P450 enzymes.)

Broadly, the melting point is the temperature, or range, at which the solid turns liquid. What is called IC50 is the concentration at which inhibition is half-maximal. Read a low IC50 as greater potency.

Some results are limits rather than exact numbers.

For the compound `O=C(NCCC1CC1)Nc1ccc(N2CCN(C(=O)c3ccccc3C(F)(F)F)CC2)nn1`, the melting point is above 300 °C.

Take `CC(C)CCNC(=O)c1ccc(N2CCN(C(=O)c3cnn(C)c3C(F)(F)F)CC2)nn1` [6-[4-(1-METHYL-5-TRIFLUOROMETHYL-1H-PYRAZOLE-4-CARBONYL)PIPERAZIN-1-YL]-PYRIDAZINE-3-CARBOXYLIC ACID (3-METHYLBUTYL)AMIDE]: the IC50 in the series with HEPG2 stood at 440 nM; at SCD, 350 nM. Also, in series [1], the “Mouse microsome SCD activity % remaining @ 10 μM” value came out at 15%.

Turning to `O=C(NCCC1CC1)c1ccc(N2CCN(Cc3ccc(Cl)cc3Cl)CC2)nn1` [6-[4-(2,4-DICHLOROBENZYL)-PIPERAZIN-1-YL]PYRIDAZINE-3-CARBOXYLIC ACID (2-CYCLOPROPYLETHYL)AMIDE], the figures for the IC50 in the series with HEPG2 and at SCD were 210 nM and 230 nM, respectively. In addition, in series [1], the “Mouse microsome SCD activity % remaining @ 10 μM” value turned out to be 8%.

For the compound `O=C(NCCC1CC1)c1ccc(N2CCN(C(=O)c3cc(C(F)(F)F)ccc3C(F)(F)F)CC2)nn1` [6-[4-(2,5-BIS-TRIFLUOROMETHYLBENZOYL)PIPERAZIN-1-YL]PYRIDAZINE-3-CARBOXYLIC ACID (2-CYCLOPROPYLETHYL)AMIDE], the IC50 with HEPG2 turned out to be 70 nM; at SCD it was 150 nM. Besides, the “Mouse microsome SCD activity % remaining @ 10 μM” value in series [1] was 6%.

`O=C(NCCC1CC1)c1ccc(N2CCN(Cc3cc(Cl)ccc3Cl)CC2)nn1` [6-[4-(2,5-DICHLOROBENZYL)PIPERAZIN-1-YL]PYRIDAZINE-3-CARBOXYLIC ACID (2-CYCLOPROPYLETHYL)AMIDE]: the IC50 in the series on HEPG2 worked out at 60 nM; against SCD, 180 nM. For the same compound, the “Mouse microsome SCD activity % remaining @ 10 μM” value in series [1] is given as 8%.

For `CC(C)CCNC(=O)c1ccc(N2CCN(C(=O)c3ccccc3N)CC2)nn1` [6-[4-(2-AMINOBENZOYL)PIPERAZIN-1-YL]PYRIDAZINE-3-CARBOXYLIC ACID (3-METHYLBUTYL)AMIDE], the IC50 in the series on HEPG2 is 640 nM; at SCD, 450 nM. The “Mouse microsome SCD activity % remaining @ 10 μM” value in series [1] is given as 23%.

On to `O=C(NCCC1CC1)c1ccc(N2CCN(Cc3ccc(F)cc3Cl)CC2)nn1` [6-[4-(2-CHLORO-4-FLUOROBENZYL)PIPERAZIN-1-YL]PYRIDAZINE-3-CARBOXYLIC ACID (2-CYCLOPROPYLETHYL)AMIDE], for which the IC50 came out at 70 nM with HEPG2 and 130 nM at SCD. The “Mouse microsome SCD activity % remaining @ 10 μM” value in series [1] worked out at 11%.

As to `CC(C)CCNC(=O)c1ccc(N2CCN(C(=O)c3ccccc3[N+](=O)[O-])CC2)nn1` [6-[4-(2-NITROBENZOYL)PIPERAZIN-1-YL]PYRIDAZINE-3-CARBOXYLIC ACID (3-METHYLBUTYL)AMIDE], the IC50 in the series with HEPG2 turned out to be 120 nM; against SCD it was 80 nM. Further, in series [1], the “Mouse microsome SCD activity % remaining @ 10 μM” value is 8%.

For the compound `O=C(NCC1CC1)c1ccc(N2CCN(C(=O)c3ccccc3C(F)(F)F)CC2)nn1` [6-[4-(2-TRIFLUOROMETHYLBENZOYL)PIPERAZIN-1-YL]PYRIDAZINE-3-CARBOXYLIC ACID CYCLOPROPYLMETHYLAMIDE], the IC50 is 5520 nM in the series on HEPG2 and 8690 nM at SCD. The “Mouse microsome SCD activity % remaining @ 10 μM” value in series [1] turned out to be 49%.

Turning to `COc1ccc(CCNC(=O)c2ccc(N3CCN(C(=O)c4ccccc4C(F)(F)F)CC3)nn2)cc1` [6-[4-(2-TRIFLUOROMETHYLBENZOYL)PIPERAZIN-1-YL]PYRIDAZINE-3-CARBOXYLIC ACID [2-(4-METOXYPHENYL)ETHYL]AMIDE], the values for the IC50 with HEPG2 and at SCD were 80 nM and 1630 nM, respectively. The “Mouse microsome SCD activity % remaining @ 10 μM” value in series [1] was found to be 7%.

Consider `O=C(NCCC1CC1)c1ccc(N2CCN(C(=O)c3ccoc3C(F)(F)F)CC2)nn1` [6-[4-(2-TRIFLUOROMETHYLFURAN-3-CARBONYL)PIPERAZIN-1-YL]PYRIDAZINE-3-CARBOXYLIC ACID (2-CYCLOPROPYLETHYL)AMIDE], for which the results for the IC50 with HEPG2 and against SCD were 290 nM and 260 nM, respectively. The “Mouse microsome SCD activity % remaining @ 10 μM” value in series [1] was determined as 7%.

With `CC(C(=O)N1CCN(c2ccc(C(=O)NCCC3CC3)nn2)CC1)(C(F)(F)F)C(F)(F)F` [6-[4-(3,3,3-TRIFLUORO-2-METHYL-2-TRIFLUOROMETHYLPROPIONYL)PIPERAZIN-1-YL]PYRIDAZINE-3-CARBOXYLIC ACID (2-CYCLOPROPYLETHYL)AMIDE], the figures for the IC50 in the series with HEPG2 and on SCD were 120 nM and 110 nM, respectively. In addition, in series [1], the “Mouse microsome SCD activity % remaining @ 10 μM” value stood at 8%.

Consider `O=C(NCCC1CC1)c1ccc(N2CCN(C(=O)CC(O)(C(F)(F)F)C(F)(F)F)CC2)nn1` [6-[4-(4,4,4-TRIFLUORO-3-HYDROXY-3-TRIFLUOROMETHYLBUTYRYL)PIPERAZIN-1-YL]PYRIDAZINE-3-CARBOXYLIC ACID (2-CYCLOPROPYLETHYL)AMIDE], for which the IC50 in the series on HEPG2 turned out to be 120 nM; against SCD, 480 nM. For the same compound, the “Mouse microsome SCD activity % remaining @ 10 μM” value in series [1] worked out at 8%.

`CC(=CC(=O)N1CCN(c2ccc(C(=O)NCCC(C)C)nn2)CC1)C(F)(F)F` [6-[4-(4,4,4-TRIFLUORO-3-METHYLBUT-2-ENOYL)PIPERAZIN-1-YL]PYRIDAZINE-3-CARBOXYLIC ACID (3-METHYLBUTYL)AMIDE]: the IC50 with HEPG2 was 540 nM; against SCD, 340 nM. Moreover, the “Mouse microsome SCD activity % remaining @ 10 μM” value in series [1] was 9%.

For the compound `O=C(NCCC1CC1)c1ccc(N2CCN(Cc3ccc(F)cc3C(F)(F)F)CC2)nn1` [6-[4-(4-FLUORO-2-TRIFLUOROMETHYLBENZYL)-PIPERAZIN-1-YL]PYRIDAZINE-3-CARBOXYLIC ACID (2-CYCLOPROPYLETHYL)AMIDE], the IC50 in the series on HEPG2 worked out at 10 nM; against SCD, 20 nM. Besides, in series [1], the “Mouse microsome SCD activity % remaining @ 10 μM” value came out at 12%.

Regarding `CC(C)CCNC(=O)c1ccc(N2CCN(C(=O)c3cnccc3C(F)(F)F)CC2)nn1` [6-[4-(4-TRIFLUOROMETHYLPYRIDINE-3-CARBONYL)PIPERAZIN-1-YL]PYRIDAZINE-3-CARBOXYLIC ACID (3-METHYLBUTYL)AMIDE], the IC50 with HEPG2 stood at 240 nM; against SCD, 80 nM. Moreover, the “Mouse microsome SCD activity % remaining @ 10 μM” value in series [1] came to 8%.

Consider `O=C(NCCC1CC1)c1ccc(N2CCN(Cc3cc(Cl)ccc3C(F)(F)F)CC2)nn1` [6-[4-(5-CHLORO-2-TRIFLUOROMETHYLBENZYL)PIPERAZIN-1-YL]PYRIDAZINE-3-CARBOXYLIC ACID (2-CYCLOPROPYLETHYL)AMIDE], for which the IC50 amounted to 40 nM in the series on HEPG2 and 60 nM on SCD. Further, the “Mouse microsome SCD activity % remaining @ 10 μM” value in series [1] is recorded as 7%.

On to `O=C(NCCC1CC1)c1ccc(N2CCN(Cc3cc(F)ccc3C(F)(F)F)CC2)nn1` [6-[4-(5-FLUORO-2-TRIFLUOROMETHYLBENZYL)PIPERAZIN-1-YL]PYRIDAZINE-3-CARBOXYLIC ACID (2-CYCLOPROPYLETHYL)AMIDE], for which the IC50 in the series with HEPG2 and against SCD was 20 nM throughout. The “Mouse microsome SCD activity % remaining @ 10 μM” value in series [1] worked out at 3%.

As for `O=C(NCCCC1CC1)c1ccc(N2CCN(Cc3cc(F)ccc3C(F)(F)F)CC2)nn1` [6-[4-(5-FLUORO-2-TRIFLUOROMETHYLBENZYL)PIPERAZIN-1-YL]PYRIDAZINE-3-CARBOXYLIC ACID (3-CYCLOPROPYLPROPYL)AMIDE], the IC50 in the series on HEPG2 came out at 60 nM; against SCD it was 180 nM. For the same compound, the “Mouse microsome SCD activity % remaining @ 10 μM” value in series [1] is recorded as 8%.

Compound `CC(C)CCNC(=O)c1ccc(N2CCN(C(=O)c3cc(Cl)ccc3C(F)(F)F)CC2)nn1` [Example 3.7, 6-[4-(5-CHLORO-2-TRIFLUOROMETHYLBENZOYL)PIPERAZIN-1-YL]PYRIDAZINE-3-CARBOXYLIC ACID (3-METHYLBUTYL)AMIDE] came in with a melting point of 148 to 151 °C.

`CC(O)(C(=O)N1CCN(c2ccc(C(=O)NCCC3CC3)nn2)CC1)C(F)(F)F` (centres unmarked) [Example 14.8, 6-[4-(3,3,3-TRIFLUORO-2-HYDROXY-2-METHYLPROPIONYL)PIPERAZIN-1-YL]PYRIDAZINE-3-CARBOXYLIC ACID (2-CYCLOPROPYLETHYL)AMIDE] came in with a melting point of 181 to 183 °C.

Take `CC(C)(C)C(O)CNC(=O)c1ccc(N2CCN(C(=O)c3ccccc3C(F)(F)F)CC2)nn1` (centres unmarked) [Example 15.29, 6-[4-(2-TRIFLUOROMETHYLBENZOYL)PIPERAZIN-1-YL]PYRIDAZINE-3-CARBOXYLIC ACID (2-HYDROXY-3,3-DIMETHYLBUTYL)AMIDE]: the melting point is 236 to 240 °C.

As for `CC(C)(C)C(O)CNC(=O)c1ccc(N2CCN(C(=O)c3cc(F)ccc3C(F)(F)F)CC2)nn1` (centres unmarked) [Example 15.30, 6-[4-(5-FLUORO-2-TRIFLUOROMETHYLBENZOYL)PIPERAZIN-1-YL]PYRIDAZINE-3-CARBOXYLIC ACID (2-HYDROXY-3,3-DIMETHYLBUTYL)AMIDE], the melting point is 186 to 189 °C.

In turn, `CC(C)CCCNC(=O)c1ccc(N2CCN(C(=O)c3ccccc3C(F)(F)F)CC2)nn1` [Example 15.33, 6-[4-(2-TRIFLUOROMETHYLBENZOYL)PIPERAZIN-1-YL]PYRIDAZINE-3-CARBOXYLIC ACID (4-METHYLPENTYL)AMIDE] registered a melting point of 43 to 45 °C.

Regarding `O=C(NCC(O)c1cccc(F)c1)c1ccc(N2CCN(C(=O)c3ccccc3C(F)(F)F)CC2)nn1` (centres unmarked) [Example 27.4, 6-[4-(2-TRIFLUOROMETHYLBENZOYL)PIPERAZIN-1-YL]PYRIDAZINE-3-CARBOXYLIC ACID [2-(3-FLUOROPHENYL)-2-HYDROXYETHYL]AMIDE], the melting point fell in the range of 117 to 119 °C.

As for `O=C(NCCc1ccccn1)c1ccc(N2CCN(C(=O)c3ccccc3C(F)(F)F)CC2)nn1` [Example 28.2, 6-[4-(2-TRIFLUOROMETHYLBENZOYL)PIPERAZIN-1-YL]PYRIDAZINE-3-CARBOXYLIC ACID (2-PYRIDIN-2-YLETHYL)AMIDE], the melting point is 151 to 154 °C.
